Literature values as cited in patent US12653891B2, “Stable glucocorticoid formulation” (AVM Biotechnology, LLC, priority 2018, dated 2026).
Counter-ions that a name gives are not always drawn. Like-named read-outs stand apart in the source and are kept apart here.

Assays:
[1] = not given; remark: listed apart in the source

Row | Threshold (EMA/CHMP/334655/2013) (5 years up to 17 years and adults) | Threshold (EMA/CHMP/334655/2013) (29 days up to 4 years) | Threshold (EMA/CHMP/334655/2013) (neonates up to 28 days) | Solubility in alcohol ([1]; alcohol) | Solubility in chloroform and ether ([1]; chloroform and ether) | Solubility in dioxan ([1]; dioxan) | Structure (SMILES) | Amount that can accumulate and cause lactic acidosis, CNS depression, coma, hypoglycemia, seizures, hemolysis (IV)
1 | 500 mg/kg | 50 mg/kg | 1 mg/kg |  |  |  | CC(O)CO (stereo not shown) [Propylene glycol] | ≥ 3 g/day
2 |  |  |  | slightly soluble | practically insoluble | very slightly soluble | C[C@@H]1C[C@H]2[C@@H]3CCC4=CC(=O)C=C[C@]4(C)[C@@]3(F)[C@@H](O)C[C@]2(C)[C@@]1(O)C(=O)COP(=O)(O)O [Dexamethasone phosphate (as sodium), 9-fluoro-11b,17,21-trihydroxy-16a-methylpregna-1,4-diene-3,20-dione 21-(dihydrogen phosphate) Disodium Salt] | 
